Eight compounds from patent US7531482B2, “Thieno-pyrimidine compounds having fungicidal activity” (Dow AgroSciences LLC, priority 2005, dated 2009) can be followed below.

Common to all, as to type: in vivo
One test has as its system Colletotricum lagenarium. Put plainly: Cucumber Anthracnose (COLLLA) whole-plant disease control test. To be noted: Cucumis sativus, foliar; 200 ppm applied to foliage of cucumber; inoculated one day after treatment; read-out: COLLLA disease control.
The test system of the next test is Erysiphe cichoracaerum. Kind of test: Cucumber Powdery Mildew (ERYSCI) whole-plant disease control test. Conditions: Erysiphe, foliar; 200 ppm applied to foliage of cucumber; inoculated one day after treatment; read-out: ERYSCI disease control.
Another test has as its system Leptosphaeria nodorum. Put plainly: Glume Blotch of Wheat (LEPTNO) whole-plant disease control test. Conditions: Parastagonospora nodorum, foliar; for pest or weed control at 200 ppm: 200 ppm applied to foliage of wheat, inoculated one day after treatment, read-out: LEPTNO disease control; for pest or weed control at 75 ppm: 75 ppm (footnote b), wheat foliage.
The next test concerns Phytophthora infestans. Kind of test: whole plant or invertebrate. Conditions: inoculated one day after treatment; for pest or weed control at 200 ppm: Phytophthora infestans, in Solanum lycopersicum, foliar, read-out: PHYTIN disease control, 200 ppm applied to foliage of tomato.
In test [1] the test system is Puccinia recondita tritici. Kind of test: Leaf Rust of Wheat (PUCCRT) whole-plant disease control test. To be noted: 200 ppm applied to foliage of wheat, inoculated one day after treatment; for pest or weed control at 200 ppm: Puccinia recondita, foliar, read-out: PUCCRT disease control.
Test [2] deals with Magnaporthe grisea=Pyricularia oryzae. Kind of test: whole plant or invertebrate. Conditions: for pest or weed control at 8.3 ppm / pest or weed control at 200 ppm: Pyricularia oryzae, foliar; for pest or weed control at 8.3 ppm: read-out: PYRIOR disease control, 8.3 ppm (footnote c), rice foliage; for pest or weed control at 200 ppm: read-out: PYRIOR disease control, 200 ppm applied to foliage of rice.

Test [3] relates to Mycosphaerella graminicola=Septoria tritici. Put plainly: Speckled Leaf Blotch of Wheat (SEPTTR) whole-plant disease control test. Conditions: 75 ppm applied to foliage of wheat; for pest or weed control at 75 ppm: Mycosphaerella, foliar, read-out: SEPTTR disease control.
[4] abbreviates: inoculated one day after treatment.

As for `Clc1csc2ncnc(NCCc3ccc(Oc4ncnc5scc(Cl)c45)cc3)c12` [Compound 108], the pest or weed control at 200 ppm with Colletotricum lagenarium, with Erysiphe cichoracaerum and in the test on Leptosphaeria nodorum was 0 to 49% in each case. Also, the PHYTIN disease control result in the test on Phytophthora infestans (200 ppm applied to foliage of tomato) is “* (* = 0–49 percent control)”. Also, the PUCCRT disease control result in test [1] is “* (* = 0–49 percent control)”. In addition, the PYRIOR disease control result in test [2] (200 ppm applied to foliage of rice, inoculated one day after treatment) is recorded as “** (** = 50–79 percent control)”. For the same compound, in test [3], the SEPTTR disease control entry is on record as “** (** = 50–79 percent control)”.

In the case of `Fc1nc(F)c(F)c(Oc2ccc(CCNc3ncnc4scc(Cl)c34)cc2)c1F` [Compound 110], the pest or weed control at 200 ppm in the test on Colletotricum lagenarium is 50 to 79%; in the test with Erysiphe cichoracaerum, 80 to 100%; with Phytophthora infestans, 0 to 49%; in test [1] it was 80 to 100%. In addition, the pest or weed control at 75 ppm (in the test with Leptosphaeria nodorum; in test [3]) was 50 to 79% in each case. The pest or weed control at 8.3 ppm in test [2] is 80 to 100%.

As for `Clc1csc2ncnc(NCCc3ccc(Oc4nc(Br)ns4)cc3)c12` [Compound 112], the pest or weed control at 200 ppm is 50 to 79% in the test with Colletotricum lagenarium; 0 to 49% with Erysiphe cichoracaerum; 0 to 49% with Leptosphaeria nodorum; 50 to 79% in the test with Phytophthora infestans; 80 to 100% in test [1]; 80 to 100% in test [2] (setting [4]). For the same compound, in test [3], the pest or weed control at 75 ppm is 0 to 49%.

`Cc1nnsc1Oc1ccc(CCNc2ncnc3scc(Cl)c23)cc1` [Compound 114]: the pest or weed control at 200 ppm with Colletotricum lagenarium lay within 50 to 79%; with Erysiphe cichoracaerum it was 80 to 100%; in the test with Leptosphaeria nodorum, 50 to 79%; in the test with Phytophthora infestans it was 80 to 100%; in test [1], 80 to 100%; in test [2] (setting [4]) it was 80 to 100%. Besides, the pest or weed control at 75 ppm in test [3] lay within 50 to 79%.

For `Clc1nsc(Oc2ccc(CCNc3ncnc4scc(Cl)c34)cc2)n1` [Compound 120], the pest or weed control at 200 ppm lay within 0 to 49% in the test with Colletotricum lagenarium, 0 to 49% in the test on Erysiphe cichoracaerum, 50 to 79% in the test on Phytophthora infestans and 80 to 100% in test [1]. For the same compound, the pest or weed control at 75 ppm (in the test on Leptosphaeria nodorum; in test [3]) was 0 to 49% each time. Also, the pest or weed control at 8.3 ppm in test [2] is 50 to 79%.

`COc1nsc(Oc2ccc(CCNc3ncnc4scc(Cl)c34)cc2)n1` [Compound 122]: the pest or weed control at 200 ppm is 50 to 79% with Colletotricum lagenarium, 80 to 100% with Erysiphe cichoracaerum, 50 to 79% with Phytophthora infestans and 80 to 100% in test [1]. Moreover, the pest or weed control at 75 ppm was 0 to 49% in the test with Leptosphaeria nodorum and 50 to 79% in test [3]. The pest or weed control at 8.3 ppm in test [2] lay in the range of 80 to 100%.

Consider `COc1cc(CCNc2ncnc3scc(Cl)c23)ccc1Oc1cc(C(F)(F)F)ccn1` [Compound 124, (5-Chlorothieno[2,3-d]pyrimidin-4-yl)-{2-[3-methoxy-4-(4-trifluoromethylpyridin-2-yloxy)phenyl]ethyl}amine], for which the pest or weed control at 200 ppm in the test with Colletotricum lagenarium was 50 to 79%; in the test with Erysiphe cichoracaerum it was 80 to 100%; in the test with Phytophthora infestans, 50 to 79%; in test [1], 80 to 100%. In addition, the pest or weed control at 75 ppm (in the test with Leptosphaeria nodorum; in test [3]) was 0 to 49% in each case. Besides, in test [2], the pest or weed control at 8.3 ppm was 80 to 100%.

For the compound `N#Cc1nccnc1Oc1ccc(CCNc2ncnc3scc(Cl)c23)cc1` [Compound 125], the pest or weed control at 200 ppm fell in the range of 0 to 49% in the test with Colletotricum lagenarium, 50 to 79% in the test with Erysiphe cichoracaerum, 50 to 79% with Phytophthora infestans and 80 to 100% in test [1]. Moreover, the pest or weed control at 75 ppm was in the range of 0 to 49% in the test on Leptosphaeria nodorum and 50 to 79% in test [3]. In addition, the pest or weed control at 8.3 ppm in test [2] fell in the range of 80 to 100%.
